Laboratory results as given in patent US11254686B1 (Corvus Pharmaceuticals, Inc., priority 2017, dated 2022).

Tests used:
Assay type in all cases: biochemical
adenosine A2B receptor = adenosine A2B receptor (Homo sapiens (Human), UniProt P29275); experiment: Adenosine receptor activity assay (Table 1), A2B activity; conditions: for Ratio: A2A activity to the A2B activity, A2A/A2B; for IC50: read-out: Ave A2B cAMP IC50
adenosine A2A receptor = adenosine A2A receptor (Homo sapiens (Human), UniProt P29274); experiment: Adenosine receptor activity assay (Table 1), A2A activity; conditions: read-out: Ave A2A cAMP IC50
adenosine A2A receptor, sequence (P29274 whole entry): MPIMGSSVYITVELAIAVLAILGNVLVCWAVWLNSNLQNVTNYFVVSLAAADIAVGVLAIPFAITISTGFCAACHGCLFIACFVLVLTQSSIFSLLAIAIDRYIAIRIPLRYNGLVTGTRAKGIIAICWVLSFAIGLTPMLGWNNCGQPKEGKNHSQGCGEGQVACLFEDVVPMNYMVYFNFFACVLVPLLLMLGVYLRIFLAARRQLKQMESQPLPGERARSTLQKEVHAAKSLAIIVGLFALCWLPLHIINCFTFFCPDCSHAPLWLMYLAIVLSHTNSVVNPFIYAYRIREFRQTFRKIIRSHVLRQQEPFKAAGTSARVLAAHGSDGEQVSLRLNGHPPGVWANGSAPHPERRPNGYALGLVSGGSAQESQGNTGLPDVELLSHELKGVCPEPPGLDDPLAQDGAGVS

adenosine A1 receptor = adenosine A1 receptor (Homo sapiens (Human), UniProt P30542); experiment: Adenosine receptor activity assay (Table 1), A1 cAMP
adenosine A1 receptor, sequence (P30542 whole entry): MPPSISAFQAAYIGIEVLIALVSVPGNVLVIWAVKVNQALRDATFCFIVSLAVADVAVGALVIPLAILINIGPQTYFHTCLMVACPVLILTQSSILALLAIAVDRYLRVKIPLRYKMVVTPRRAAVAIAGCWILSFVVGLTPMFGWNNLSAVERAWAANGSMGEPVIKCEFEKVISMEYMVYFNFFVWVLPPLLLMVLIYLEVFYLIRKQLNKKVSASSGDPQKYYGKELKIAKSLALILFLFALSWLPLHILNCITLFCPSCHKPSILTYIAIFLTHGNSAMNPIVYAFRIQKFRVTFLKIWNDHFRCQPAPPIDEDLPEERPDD
Method: (§1) Table 1. Compounds (e.g., Adenosine Receptor modulators) and activity assay results. The legend is as follows: A=<10 nM; B=10-50 nM; C=50-100 nM; D=100-500; and E=>500 nM. The ratio corresponds to the A2A activity to the A2B activity; or A2A/A2B.

adenosine A3 receptor = adenosine A3 receptor (Homo sapiens (Human), UniProt P0DMS8); experiment: Adenosine receptor activity assay (Table 1), A3 cAMP
adenosine A3 receptor, sequence (P0DMS8 whole entry): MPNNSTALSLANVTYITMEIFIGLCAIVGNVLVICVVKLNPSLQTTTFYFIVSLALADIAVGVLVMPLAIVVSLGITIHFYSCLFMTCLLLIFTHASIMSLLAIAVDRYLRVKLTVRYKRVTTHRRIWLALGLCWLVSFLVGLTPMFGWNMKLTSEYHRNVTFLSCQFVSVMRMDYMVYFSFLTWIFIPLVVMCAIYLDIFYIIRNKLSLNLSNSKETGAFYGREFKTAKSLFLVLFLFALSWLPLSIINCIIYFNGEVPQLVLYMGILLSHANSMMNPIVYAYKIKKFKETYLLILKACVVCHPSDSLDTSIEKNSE
Method: as §1

adenosine A2B receptor, sequence (P29275 whole entry): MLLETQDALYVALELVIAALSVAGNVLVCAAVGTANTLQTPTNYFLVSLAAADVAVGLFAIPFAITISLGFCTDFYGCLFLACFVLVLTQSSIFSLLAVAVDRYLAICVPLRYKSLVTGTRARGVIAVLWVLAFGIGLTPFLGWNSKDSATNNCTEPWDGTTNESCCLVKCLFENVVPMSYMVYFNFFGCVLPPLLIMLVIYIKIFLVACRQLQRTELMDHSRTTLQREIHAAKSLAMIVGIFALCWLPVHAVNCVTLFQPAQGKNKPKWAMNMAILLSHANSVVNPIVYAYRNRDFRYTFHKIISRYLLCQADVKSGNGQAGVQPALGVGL

| Ratio (adenosine A2B receptor) | IC50 (adenosine A2B receptor) [nM] | IC50 (adenosine A2A receptor) [nM] | IC50 (adenosine A1 receptor) [nM] | IC50 (adenosine A3 receptor) [nM] | Structure (SMILES) |
| --- | --- | --- | --- | --- | --- |
| 80.91 | < 10 | > 500 | > 500 | > 500 | CC(=O)N(C)C1CN(C(=O)c2nc(N[C@@H](C)c3cncc(F)c3)nc3cc(C)sc23)C1 [Example Z509, (S)—N-(1-(2-((1-(5-Fluoropyridin-3-yl)ethyl)amino)-6-methylthieno[3,2-d]pyrimidine-4-carbonyl)azetidin-3-yl)-N-methylacetamide] |
| 2.90 | 10 to 50 | 10 to 50 | > 500 | 50 to 100 | Cc1cc2nc(N[C@@H](C)c3cncc(F)c3)nc(C(=O)N3CC(NC(=O)OC(C)C)C3)c2s1 [Example Z511, Isopropyl (S)-(1-(2-((1-(5-fluoropyridin-3-yl)ethyl)amino)-6-methylthieno[3,2-d]pyrimidine-4-carbonyl)azetidin-3-yl)carbamate] |
| 33.02 | 10 to 50 | > 500 | > 500 | > 500 | Cc1cc2nc(N[C@@H](C)c3cncc(F)c3)nc(C(=O)N3CC(NC(=O)CNC(=O)c4ccccc4)C3)c2s1 [Example Z512, (S)—N-(2-((1-(2-((1-(5-Fluoropyridin-3-yl)ethyl)amino)-6-methylthieno[3,2-d]pyrimidine-4-carbonyl)azetidin-3-yl)amino)-2-oxoethyl)benzamide] |
| 0.18 | 10 to 50 | < 10 | 100 to 500 | 10 to 50 | Cc1cc2nc(N[C@@H](C)c3cncc(F)c3)nc(C(=O)N3CC(NC(=O)C(C)(C)C)C3)c2s1 [Example Z513, (S)—N-(1-(2-((1-(5-Fluoropyridin-3-yl)ethyl)amino)-6-methylthieno[3,2-d]pyrimidine-4-carbonyl)azetidin-3-yl)pivalamide] |
| 5.46 | < 10 | 10 to 50 | > 500 | > 500 | COCCC(=O)NC1CN(C(=O)c2nc(N[C@@H](C)c3cncc(F)c3)nc3cc(C)sc23)C1 [Example Z518, (S)—N-(1-(2-((1-(5-Fluoropyridin-3-yl)ethyl)amino)-6-methylthieno[3,2-d]pyrimidine-4-carbonyl)azetidin-3-yl)-3-methoxypropanamide] |
| 3.87 | < 10 | 10 to 50 | > 500 | > 500 | C[C@H](Nc1nc(C(=O)N2CC(NC(=O)C3CCOC3)C2)c2sccc2n1)c1cncc(F)c1 (stereo partly drawn) [Example Z519, N-(1-(2-(((S)-1-(5-Fluoropyridin-3-yl)ethyl)amino)thieno[3,2-d]pyrimidine-4-carbonyl)azetidin-3-yl)tetrahydrofuran-3-carboxamide] |
| 1.58 | < 10 | 10 to 50 | > 500 | 100 to 500 | Cc1cc2nc(N[C@@H](C)c3cncc(F)c3)nc(C(=O)N3CC(NC(=O)C4CC4)C3)c2s1 [Example Z522, (S)—N-(1-(2-((1-(5-Fluoropyridin-3-yl)ethyl)amino)-6-methylthieno[3,2-d]pyrimidine-4-carbonyl)azetidin-3-yl)cyclopropanecarboxamide] |
| 1.40 | < 10 | 10 to 50 | > 500 | 100 to 500 | Cc1cc2nc(N[C@@H](C)c3cncc(F)c3)nc(C(=O)N3CC(NC(=O)C4CCOC4)C3)c2s1 (stereo partly drawn) [Example Z523, N-(1-(2-(((S)-1-(5-Fluoropyridin-3-yl)ethyl)amino)-6-methylthieno[3,2-d]pyrimidine-4-carbonyl)azetidin-3-yl)tetrahydrofuran-3-carboxamide] |
| 6.99 | 10 to 50 | 100 to 500 | > 500 | > 500 | CC(=O)NC1CN(C(=O)c2nc(N[C@@H](C)c3cncc(F)c3)nc3ccsc23)C1 [Example Z530, (S)—N-(1-(2-((1-(5-Fluoropyridin-3-yl)ethyl)amino)thieno[3,2-d]pyrimidine-4-carbonyl)azetidin-3-yl)acetamide] |
| 149.69 | 10 to 50 | > 500 | > 500 | > 500 | CC(=O)N[C@@H]1CCN(C(=O)c2nc(N[C@@H](C)c3cncc(F)c3)nc3cc(C)sc23)C1 [Example Z532, N—((R)-1-(2-(((S)-1-(5-Fluoropyridin-3-yl)ethyl)amino)-6-methylthieno[3,2-d]pyrimidine-4-carbonyl)pyrrolidin-3-yl)acetamide] |
| 33.20 | 10 to 50 | 100 to 500 | > 500 | > 500 | Cc1cc2nc(N[C@@H](C)c3cncc(F)c3)nc(C(=O)N3CC(N4CCCC4)C3)c2s1 [Example Z540, (S)-(2-((1-(5-Fluoropyridin-3-yl)ethyl)amino)-6-methylthieno[3,2-d]pyrimidin-4-yl)(3-(pyrrolidin-1-yl)azetidin-1-yl)methanone] |
| 1.64 | 10 to 50 | 10 to 50 | 100 to 500 | 100 to 500 | Cc1cc2nc(N[C@@H](C)c3cncc(F)c3)nc(C(=O)N3CC(NC(=O)C4CCCO4)C3)c2s1 (stereo partly drawn) [Example Z541, N-(1-(2-(((S)-1-(5-Fluoropyridin-3-yl)ethyl)amino)-6-methylthieno[3,2-d]pyrimidine-4-carbonyl)azetidin-3-yl)tetrahydrofuran-2-carboxamide] |

Further lines, the compound ahead of its results:

| Structure (SMILES) | Ratio (adenosine A2B receptor) | IC50 (adenosine A2B receptor) [nM] | IC50 (adenosine A2A receptor) [nM] | IC50 (adenosine A1 receptor) [nM] | IC50 (adenosine A3 receptor) [nM] |
| --- | --- | --- | --- | --- | --- |
| Cc1cc2nc(N[C@@H](C)c3cncc(F)c3)nc(C(=O)N3CC(N(C)C(=O)CC(C)(C)C)C3)c2s1 [Example Z508, (S)—N-(1-(2-((1-(5-Fluoropyridin-3-yl)ethyl)amino)-6-methylthieno[3,2-d]pyrimidine-4-carbonyl)azetidin-3-yl)-N,3,3-trimethylbutanamide] | 1.06 | 10 to 50 | 10 to 50 | > 500 | > 500 |
| CC(C)OC(=O)NC1CN(C(=O)c2nc(N[C@@H](C)c3cncc(F)c3)nc3ccsc23)C1 [Example Z510, Isopropyl (S)-(1-(2-((1-(5-fluoropyridin-3-yl)ethyl)amino)thieno[3,2-d]pyrimidine-4-carbonyl)azetidin-3-yl)carbamate] | 2.03 | 10 to 50 | 10 to 50 | > 500 | > 500 |
| Cc1cc2nc(N[C@@H](C)c3cccnc3)nc(C(=O)N3CC(CO)C3)c2s1 [Example Z515, (S)-(3-(Hydroxymethyl)azetidin-1-yl)(6-methyl-2-((1-(pyridin-3-yl)ethyl)amino)thieno[3,2-d]pyrimidin-4-yl)methanone] | 53.11 | 10 to 50 | > 500 | > 500 | > 500 |
| CCNC(=O)C1CCN(C(=O)c2nc(N[C@@H](C)c3cncc(F)c3)nc3ccsc23)C1 (stereo partly drawn) [Example Z520, N-Ethyl-1-(2-(((S)-1-(5-fluoropyridin-3-yl)ethyl)amino)thieno[3,2-d]pyrimidine-4-carbonyl)pyrrolidine-3-carboxamide] | 27.57 | < 10 | 100 to 500 | > 500 | > 500 |
| CC1CCN1C(=O)c1nc(N[C@@H](C)c2cncc(F)c2)nc2ccsc12 (stereo partly drawn) [Example Z524, (2-(((S)-1-(5-Fluoropyridin-3-yl)ethyl)amino)thieno[3,2-d]pyrimidin-4-yl)(2-methylazetidin-1-yl)methanone] | 11.94 | < 10 | 50 to 100 | > 500 | > 500 |
| CC(C)(C)C(=O)N[C@H]1CCN(C(=O)c2nc(NCc3cncc(F)c3)nc3ccsc23)C1 [Example Z526, (S)—N-(1-(2-(((5-Fluoropyridin-3-yl)methyl)amino)thieno[3,2-d]pyrimidine-4-carbonyl)pyrrolidin-3-yl)pivalamide] | 4.26 | 10 to 50 | 50 to 100 | > 500 | > 500 |
| CC(=O)NCC1CN(C(=O)c2nc(N[C@@H](C)c3cncc(F)c3)nc3ccsc23)C1 [Example Z528, (S)—N-((1-(2-((1-(5-Fluoropyridin-3-yl)ethyl)amino)thieno[3,2-d]pyrimidine-4-carbonyl)azetidin-3-yl)methyl)acetamide] | 44.92 | < 10 | 100 to 500 | > 500 | > 500 |
| C[C@H](Nc1nc(C(=O)N2CC(CNC(=O)C(C)(C)C)C2)c2sccc2n1)c1cncc(F)c1 [Example Z529, (S)—N-((1-(2-((1-(5-Fluoropyridin-3-yl)ethyl)amino)thieno[3,2-d]pyrimidine-4-carbonyl)azetidin-3-yl)methyl)pivalamide] | 4.15 | 10 to 50 | 100 to 500 | > 500 | > 500 |
| C[C@H](Nc1nc(C(=O)N2CC(CNS(C)(=O)=O)C2)c2sccc2n1)c1cncc(F)c1 [Example Z531, (S)—N-((1-(2-((1-(5-Fluoropyridin-3-yl)ethyl)amino)thieno[3,2-d]pyrimidine-4-carbonyl)azetidin-3-yl)methyl)methanesulfonamide] | 19.43 | 10 to 50 | 100 to 500 | > 500 | > 500 |
| Cc1cc2nc(N[C@@H](C)c3cncc(F)c3)nc(C(=O)NCCC3CN(C)C3)c2s1 [Example Z535, (S)-2-((1-(5-Fluoropyridin-3-yl)ethyl)amino)-6-methyl-N-(2-(1-methylazetidin-3-yl)ethyl)thieno[3,2-d]pyrimidine-4-carboxamide] | 244.67 | 10 to 50 | > 500 | > 500 | > 500 |
